Results: article doi:10.1101/2023.04.17.537234, “A biophysical rationale for the selective inhibition of PTP1B over TCPTP by nonpolar terpenoids” (bioRxiv, 2023)

What was measured:
PTP1B [1] = assay: pNPP enzyme kinetics, inhibition by amorphadiene; type: biochemical, H. Sapiens
Procedure: (§1) We overexpressed all proteins examined in this study in BL21(DE3) cells by carrying out steps described previously: (i) We used Gibson assembly to introduce mutations for PTP1B or TCPTP encoded by a pET16b vector and transformed sequence-confirmed plasmids into BL21(DE3) cells. (ii) We used an individual colony from each transformation to inoculate 20 mL of LB media, which we incubated at 37°C in an incubator-shaker (225 rpm) for 6 hours, prior to inoculating 1 L of rich induction media (20 g tryptone, 10 g yeast extract, 5 g sodium chloride, 50 μg/mL carbenicillin, 72 mL 5X M9 salts solution, 20 mL of 20% glucose solution). (iii) We grew the resulting inoculum at 37°C and 225 rpm. (iv) At an OD600 of 0.5–0.8, we added 500 μM IPTG to induce protein expression and incubated the induced flasks at 22°C and 225 rpm for 18–20 hours. (v) We pelleted the final culture (5000 rpm for 10 minutes in a Beckman J2-HS floor centrifuge), disposed of the supernatants, and stored the cell pellets at −80°C freezer for future purification. We purified PTP variants with fast protein liquid chromatography (FPLC) using previously described protocols. In brief, we lysed cells with chemical lysis buffer (for each gram of cell pellet, we used 4 mL of 20 mM tris base, 50 mM sodium chloride, 1% Triton X-100, and pH 7.5 supplemented with 2 mg MgSO4–7H2O, 2 mg TAME, 0.5 mL TCEP (0.5 mM), 3.75 μL PMSF solution, 1 mg lysozyme, and 30 U DNase), removed protein debris with saturated ammonium sulfate (20% for PTP1B variants and 10% TCPTP variants, respectively), and extracted the supernatant. We purified PTPs by using nickel affinity chromatography (HisTrap HP with 50 mM Tris-HCl, 300 mM sodium chloride, and 0.5 mM TCEP at pH 7.5 with and without 500 mM imidazole) followed by anion exchange chromatography (HiTrap HP 5 mL with 50 mM HEPES, and 0.5 mM TCEP at pH 7.5 with and without 1 M NaCl). We concentrated final protein fractions into NaCl-free anion exchange buffer ([…], Sartorius) and stored them in 20% glycerol at −80°C.
(§2) We characterized the activity of PTP variants on p-nitrophenyl phosphate (pNPP). In brief, we used 96-well plates to prepare 200-μL reactions with 50 nM enzyme, 50 μg/mL BSA, and varying amorphadiene concentrations (0.5 – 500 μM) in 50 mM HEPES buffer (pH = 7.3) with 10% DMSO. We used 20 mM substrate to initialize the reactions and monitored the formation of p-nitrophenol (pNP) by measuring absorbance at 405 nm at 30-s intervals over 8 minutes (SpectraMax iD3 plate reader). We used standard curves to convert absorbance measurements to product concentrations and used the slopes of the initial rate regime for Vo.

TCPTP = assay: pNPP enzyme kinetics, inhibition by amorphadiene; type: biochemical, H. Sapiens
Procedure: as §1, §2

PTP1B [2] = settings: PTP1B over TCPTP; cited from earlier work
Solubility = type: physicochemical

solubility (Solubility) | Structure (SMILES) | IC50 of AD, mutant vs wild-type (PTP1B [1]; PTP1B L158F vs wild-type) | IC50 of AD, mutant vs wild-type (PTP1B [1]; PTP1B M282K) | IC50 of AD, mutant vs wild-type (PTP1B [1]; PTP1B Q290R) | IC50 of AD, mutant vs wild-type (TCPTP; TCPTP K280M) | IC50 of AD, mutant vs wild-type (TCPTP; TCPTP L158F vs wild-type) | IC50 of AD, mutant vs wild-type (TCPTP; TCPTP R288Q) | selectivity: inhibits PTP1B more potently than TCPTP (PTP1B [2])
– | C=C(C)[C@@H]1CC[C@@H](C)[C@@H]2CCC(C)=C[C@@H]21 [AD, amorphadiene] | indistinguishable | reduced potency | reduced potency | no effect on IC50 | indistinguishable | no effect on IC50 | 5–7 X
– | CCc1oc2cc(S(=O)(=O)Nc3ccc(S(=O)(=O)Nc4nccs4)cc3)ccc2c1C(=O)c1cc(Br)c(O)c(Br)c1 [BBR, 3-(3,5-Dibromo-4-hydroxy-benzoyl)-2-ethyl-benzofuran-6-sulfonic-acid-(4-(thiazol-2-ylsulfamyl)-phenyl)-amide, reference compound] | – | – | – | – | – | – | 5–6 X
low solubility | CC(C)=CCC=C(C)C1CC=C(C)CC1 (stereo not drawn) [AB, α-bisabolene] | – | – | – | – | – | – | 5–7 X
